{
  "source": "patent US20200222410A1",
  "about": "“NUCLEOCYTOPLASMIC REGULATOR OF AUTOPHAGY-ASSOCIATED TRANSCRIPTION FACTORS” (BROWN UNIVERSITY, priority 2017, published 2020)",
  "key": {"TFEB": {"test_system": "TFEB", "assay": "TFEB-GFP nuclear localization in HeLa cells", "format": "cell-based, human", "settings": "TFEB-GFP-expressing HeLa cells, 1 μM, 6 hours", "experimental": "Cell culture: HeLa cells (ATCC) and HeLa cells expressing TFEB-GFP (S. Ferguson lab) were grown in 6-well plates on a coverslip for 24 hours in DMEM High Glucose (Genesee Scientific) containing 2 mM L-Glutamine, 1% Penicillin-Strep and 10% Fetal Bovine Serum (GenClone). For RNAi experiments, both HeLa cell lines were transfected with Silencer Select siRNA against XPO1 (5 nM) or TFEB (10 nM) or negative control siRNA #2 (Thermo Fisher Scientific) with RNAi Max (Thermo Fisher Scientific) and Opti-MEM (Gibco) for 48 hours. Cells were incubated for another 6 hours with DMSO 0.1%, Torin 1 […], KPT-330, KPT-276, KPT-185 or KPT-335 (1 μM) (Selleckchem). For Lysotracker analysis, cells on coverslips were previously grown with vehicle or compounds (including GSK-3β inhibitor VIII or Leptomycin b (10 nM) for 6 hours followed by a one hour incubation with 100 nM of Lysotracker Red DND-99 (Thermo Fisher Scientific) and live cells were imaged. Coverslips were mounted for imaging onto slides and imaged with a Zeiss Axiovert 200M Fluorescent Microscope. Lysotracker signal was quantified by measuring signal intensity over background of individual cells using ImageJ. For imaging TFEB-GFP signal, cells were fixed in methanol. Nuclear localization was quantified by counting cells that had higher GFP intensity in the nucleus compared to the cytoplasm measured using ImageJ."}, "C. elegans [1]": {"test_system": "C. elegans", "assay": "Lifespan analysis of C. elegans", "format": "in vivo", "settings": "for lifespan of treated animals compared to vehicle-treated controls: C. elegans wild-type; for % Difference in mean lifespan vs vehicle control / Drug treatment Mean Lifespan: N2 wild-type; for Drug treatment Mean Lifespan: 20° C.", "experimental": "Lifespan analysis: Worms were synchronized by bleaching and eggs were grown on OP50 E. coli during development. Day 1 adults were transferred onto corresponding RNAi plates and kept at 20° C. Mantel-Cox log rank statistical analyses were calculated using Stata 13.0."}, "HLH-30": {"test_system": "HLH-30", "assay": "HLH-30::GFP nuclear localization in nematodes (fluorescent microscopy)", "format": "in vivo, C. elegans", "experimental": "The nematode C. elegans is an art-recognized system to identify genetic and pharmacological modifiers of various cellular processes. As such, an unbiased genome-wide RNAi screen for genetic modifiers of the activity of HLH-30/TFEB was performed (FIG. 1B). Specifically, enhancers of HLH-30 nuclear localization were searched for by following the distribution of HLH-30 fused to GFP.\nHLH-30-GFP-expressing nematodes were fed HT115 E. coli bacteria transformed with a plasmid containing the L4440 backbone and a portion of the cDNA sequence complementary to the coding sequence of the xpo-1 gene. Nuclear enrichment was measured by fluorescent microscopy after animals were treated from eggs to day 1 of adulthood. The RNAi was based on the cosmid sequence ZK742.1 of the C. elegans genome. The sequence of the RNAi used is:\nFluorescent microscopy imaging: Transgenic worms were mounted on a 2% agarose pad with 0.1% sodium azide and imaged using a Zeiss Discovery V20 fluorescent microscope.\nAnimals were fed OP50 E. coli with 0.2% of DMSO (vehicle control) or 0.2% DMSO with KPT-330 at 0.2 mM. Nuclear localization of the HLH-30-GFP reporter and survival was measured."}, "dsodH71Y flies": {"test_system": "dsodH71Y flies", "assay": "Lifespan analysis of ALS model in flies (dsodH71Y)", "format": "in vivo, D. melanogaster", "settings": "for Drug treatment Mean Lifespan: H71Y Sod-1 (dsod) flies, 25° C.; for % Difference in mean lifespan vs vehicle control: H71Y flies", "experimental": "l Lifespan analysis in Drosophila: Measurement of lifespan (25° C.) in dsodH71Y was performed as previously described in the art (Sahin et al., 2017, Human SOD1 ALS Mutations in a Drosophila Knock-In Model Cause Severe Phenotypes and Reveal Dosage-Sensitive Gain- and Loss-of-Function Components. Genetics 205, 707-723). The software Stata 13.0 was used to perform Mantel-Cox log rank statistical analyses."}, "[2]": {"test_system": "polyQ-containing protein aggregates", "assay": "polyQ aggregate formation (Q35::GFP muscle, Q40::YFP intestine)", "format": "in vivo, C. elegans", "settings": "day 5 animals, 100 μM", "experimental": "(§1) Proteostasis analyses: Heat shock analyses were performed at 37° C. and scoring survival every hour. Aggregation was visualized by fluorescent microscopy using strains expressing Q35::GFP in muscle (AM140) (Morley et al., 2002, The threshold for polyglutamine-expansion protein aggregation and cellular toxicity is dynamic and influenced by aging in Caenorhabditis elegans. Proc Natl Acad Sci USA 99, 10417-10422) or Q40::YFP in intestine (GF78) (Mohri-Shiomi and Garsin, (2008) Insulin signaling and the heat shock response modulate protein homeostasis in the Caenorhabditis elegans intestine during infection. J Biol Chem 283, 194-201). Aggregate clearance was assayed with a strain (GMC101) (McColl et al., (2012). Utility of an improved model of amyloid-beta (Abeta(1)(−) (4)(2)) toxicity in Caenorhabditis elegans for drug screening for Alzheimer's disease. Mol Neurodegener 7, 57). […]) inducing expression of human Aβ42 at 25° C. Following a 5-day RNAi feeding, paralysis was assayed after 48 hours at 25° C."}, "mCherry::GFP::LGG-1": {"test_system": "mCherry::GFP::LGG-1", "assay": "Autophagy analysis with tandem reporter mCherry::GFP::LGG-1 (autophagosome and autolysosome formation)", "format": "in vivo, C. elegans", "settings": "50 or 100 μM, visualized after 48 hours", "experimental": "Autophagy analysis: Worms expressing the tandem reporter GFP-mCherry-LGG-1 (Chang et al., (2017). Spatiotemporal regulation of autophagy during Caenorhabditis elegans aging. eLife 6) were treated from L4/day 1 of adulthood and imaged using an LSM 800 Zeiss Confocal Laser Scanning Microscope as previously described (Chang et al., (2017). Spatiotemporal regulation of autophagy during Caenorhabditis elegans aging. eLife 6). To functionally assess the effect of genetically or pharmacologically inhibiting xpo-1 on the autophagic pathway, autophagic flux (i.e. fusion of autophagosome to lysosome) was measured in C. elegans. Several fluorescent reporters of autophagy proteins (including LGG-1/LC3, SQST-1/P62) have been designed to observe and quantify autophagic flux. […] These animals were used to determine the effect of silencing (RNAi) xpo-1 on autophagy using fluorescent microscopy. The accumulation of unique red punctae represents active autolysosome formation, indicative of activated autophagy."}, "C. elegans [3]": {"test_system": "C. elegans", "assay": "Heat stress survival assay (37° C.)", "format": "in vivo", "settings": "100 μM", "experimental": "as §1"}},
  "note": "Values joined by “and” are separate entries in the source; they are usually repeats but may differ in a detail not shown here. Equal values may be shown once. “Also recorded” adds a separate entry of the source.",
  "data": [
    {"smiles": "COc1cc(-c2ncn(/C=C\\C(=O)OC(C)C)n2)cc(C(F)(F)F)c1", "note": "[KPT-185]", "values": [
      {"measurement": "nuclear localization of TFEB", "setting": "TFEB", "result": "marked increase in nuclear localization of TFEB"}
    ]},
    {"smiles": "O=C(/C=C\\n1cnc(-c2cc(C(F)(F)F)cc(C(F)(F)F)c2)n1)N1CC(F)(F)C1", "note": "[KPT-276]", "values": [
      {"measurement": "nuclear localization of TFEB", "setting": "TFEB", "result": "marked increase in nuclear localization of TFEB"},
      {"measurement": "lifespan of treated animals compared to vehicle-treated controls", "setting": "C. elegans [1]", "result": "lifespan extension"},
      {"measurement": "% Difference in mean lifespan vs vehicle control", "setting": "C. elegans [1]; 25 μM", "result": 9.4, "unit": "%"},
      {"measurement": "Drug treatment Mean Lifespan", "setting": "C. elegans [1]; 25 μM", "result": 23.2, "unit": "days"},
      {"measurement": "nuclear enrichment of HLH-30", "setting": "HLH-30; 25 μM", "result": "nuclear enrichment of HLH-30"}
    ]},
    {"smiles": "O=C(/C=C\\n1cnc(-c2cc(C(F)(F)F)cc(C(F)(F)F)c2)n1)NNc1cnccn1", "note": "[KPT-330, Selinexor]", "values": [
      {"measurement": "Drug treatment Mean Lifespan", "setting": "dsodH71Y flies; both sexes, 100 μM", "result": "9.8 days and 13.5 days"},
      {"measurement": "Drug treatment Mean Lifespan", "setting": "dsodH71Y flies; females, 100 μM", "result": "12 days and 16.9 days"},
      {"measurement": "Drug treatment Mean Lifespan", "setting": "dsodH71Y flies; males, 100 μM", "result": "6.8 days and 6 days"},
      {"measurement": "% Difference in mean lifespan vs vehicle control", "setting": "dsodH71Y flies; both sexes, 100 μM", "result": "24.0% and 18.4%"},
      {"measurement": "% Difference in mean lifespan vs vehicle control", "setting": "dsodH71Y flies; females, 100 μM", "result": "26.3% and 27.1%"},
      {"measurement": "overall survivorship compared to control", "setting": "dsodH71Y flies; dsodH71Y flies fed 100 μM during adulthood", "result": "beneficial impact on the overall survivorship"},
      {"measurement": "lifespan of females", "setting": "dsodH71Y flies; dsodH71Y flies, 100 μM", "result": "extended significantly"},
      {"measurement": "formation of polyQ-containing (Q40::YFP) aggregates", "setting": "[2]", "result": "reduction in the formation"},
      {"measurement": "Autophagy in pharynx and hypodermal seam cells", "setting": "mCherry::GFP::LGG-1", "result": "enhanced"},
      {"measurement": "nuclear localization of TFEB", "setting": "TFEB", "result": "marked increase in nuclear localization of TFEB"},
      {"measurement": "lifespan of treated animals compared to vehicle-treated controls", "setting": "C. elegans [1]", "result": "significant lifespan extension; also recorded: significant increase in the lifespan"},
      {"measurement": "% Difference in mean lifespan vs vehicle control", "setting": "C. elegans [1]; 25 μM", "result": "12.4% and 13.2%"},
      {"measurement": "Drug treatment Mean Lifespan", "setting": "C. elegans [1]; 25 μM", "result": "21.7 days and 24 days"},
      {"measurement": "% Difference in mean lifespan vs vehicle control", "setting": "C. elegans [1]; 50 μM", "result": "9.8% and 17%"},
      {"measurement": "Drug treatment Mean Lifespan", "setting": "C. elegans [1]; 50 μM", "result": "21.2 days and 24.8 days"},
      {"measurement": "% Difference in mean lifespan vs vehicle control", "setting": "C. elegans [1]; 100 μM", "result": "14% and 21.7%"},
      {"measurement": "Drug treatment Mean Lifespan", "setting": "C. elegans [1]; 100 μM", "result": "22 days and 25.8 days"},
      {"measurement": "nuclear localization of HLH-30", "setting": "HLH-30; Day 1 adults, 25, 50 and 100 μM for 72 hours", "result": "displayed nuclear localization of HLH-30"},
      {"measurement": "Nuclear localization of HLH-30::GFP", "setting": "HLH-30; concentrations below 25 μM", "result": "not detected"},
      {"measurement": "nuclear localization of HLH-30", "setting": "HLH-30; lower concentration (data not shown)", "result": "also led to nuclear localization of HLH-30"},
      {"measurement": "nuclear localization of HLH-30 (fused to GFP)", "setting": "HLH-30; nematodes grown on plates containing 2 mM", "result": "led to nuclear localization of HLH-30"},
      {"measurement": "resistance to heat", "setting": "C. elegans [3]; day 1 to day 5 of adulthood", "result": "improved resistance to heat"},
      {"measurement": "% Difference in heat stress survival vs vehicle control", "setting": "C. elegans [3]; N2 wild-type, Day 5 of adulthood", "result": "18.5% and 34.7%"},
      {"measurement": "Heat Stress survival (mean, hours)", "setting": "C. elegans [3]; N2 wild-type, Day 5 of adulthood after 5 days of treatment", "result": "6.4 h and 6.2 h"}
    ]},
    {"smiles": "O=C(/C=C\\n1cnc(-c2cc(C(F)(F)F)cc(C(F)(F)F)c2)n1)NNc1ccccn1", "note": "[KPT-335, Verdinexor]", "values": [
      {"measurement": "nuclear localization of TFEB", "setting": "TFEB", "result": "marked increase in nuclear localization of TFEB"}
    ]}
  ]
}
